According to patent publication US6905841B2, “Enzymatic substrates for detecting Pseudomonas aeruginas” (Biomerieux S.A., priority 1999, dated 2005):
Read-outs that look alike come from different tables or passages of the source.

Assays:
[1] = tested on: β-alanine aminopeptidase; details: Sphingomonas paucimobilis; 2 strains tested; read after 22 to 24 hours
[2] = tested on: β-alanine aminopeptidase; details: Pseudomonas aeruginosa; 13 strains tested; read after 22 to 24 hours
[3] = tested on: β-alanine aminopeptidase; details: Providencia stuartii; 1 strain tested; read after 22 to 24 hours
[4] = tested on: β-alanine aminopeptidase; details: Pseudomonas putida; 1 strain tested; read after 22 to 24 hours
[5] = tested on: β-alanine aminopeptidase; details: Shewanella algae; 1 strain tested; read after 22 to 24 hours
[6] = tested on: β-alanine aminopeptidase; details: Streptococcus pyogenes; 2 strains tested; read after 22 to 24 hours
[7] = tested on: β-alanine aminopeptidase; details: Salmonella arizonae; 1 strain tested; read after 22 to 24 hours
[8] = tested on: β-alanine aminopeptidase; details: Stenotrophomonas maltophilia; 2 strains tested; read after 22 to 24 hours
[9] = tested on: β-alanine aminopeptidase; details: Proteus mirabilis; 2 strains tested; read after 22 to 24 hours
[10] = tested on: β-alanine aminopeptidase; details: Citrobacter koseri; 1 strain tested; read after 22 to 24 hours
[11] = tested on: β-alanine aminopeptidase; details: Streptococcus agalactiae; 1 strain tested; read after 22 to 24 hours
[12] = tested on: β-alanine aminopeptidase; details: Brevundimonas diminuta; 2 strains tested; read after 22 to 24 hours
[13] = tested on: β-alanine aminopeptidase; details: Achromobacter xylosoxydans; 2 strains tested; read after 22 to 24 hours
[14] = tested on: β-alanine aminopeptidase; details: Enterobacter cloacae; 2 strains tested; read after 22 to 24 hours
[15] = tested on: β-alanine aminopeptidase; details: Acinetobacter baumannii; 2 strains tested; read after 22 to 24 hours
[16] = tested on: β-alanine aminopeptidase; test: APIZYM-type test strips with β-alanyl-β-naphthylamide; format: cell-based; details: Oligella ureolytica; 2 strains
[17] = tested on: β-alanine aminopeptidase; test: as above; format: cell-based; details: Moraxella osloensis; 18 strains
[18] = tested on: β-alanine aminopeptidase; test: as above; format: cell-based; details: Pseudomonas mendocina; five strains
[19] = tested on: β-alanine aminopeptidase; test: as above; format: cell-based; details: Alcaligenes faecalis/odorans; five strains
[20] = tested on: β-alanine aminopeptidase; test: as above; format: cell-based; details: Pseudomonas alcaligenes; five strains
[21] = tested on: β-alanine aminopeptidase; test: as above; format: cell-based; details: Pasteurella haemolytica; five strains
[22] = tested on: β-alanine aminopeptidase; test: as above; format: cell-based; details: Empedobacter brevis; 3 strains
[23] = tested on: β-alanine aminopeptidase; test: as above; format: cell-based; details: Stenotrophomonas maltophilia; five strains
[24] = tested on: β-alanine aminopeptidase; test: as above; format: cell-based; details: Enterobacter sakazakii; five strains
[25] = tested on: β-alanine aminopeptidase; test: as above; format: cell-based; details: Psychrobacter phenylpyruvicus; 4 strains
[26] = tested on: β-alanine aminopeptidase; test: as above; format: cell-based; details: Serratia odorifera; five strains
[27] = tested on: β-alanine aminopeptidase; test: as above; format: cell-based; details: Salmonella gallinarum; 3 strains
[28] = tested on: β-alanine aminopeptidase; test: as above; format: cell-based; details: Plesiomonas shigelloïdes; five strains
[29] = tested on: β-alanine aminopeptidase; test: as above; format: cell-based; details: Klebsiella rhinoscleromatis; 3 strains
[30] = tested on: β-alanine aminopeptidase; test: as above; format: cell-based; details: Brevundimonas diminuta; five strains
[31] = tested on: β-alanine aminopeptidase; test: as above; format: cell-based; details: Pseudomonas stutzeri; five strains
[32] = tested on: β-alanine aminopeptidase; test: as above; format: cell-based; details: Salmonella choleraesuis; five strains
[33] = tested on: β-alanine aminopeptidase; test: as above; format: cell-based; details: Citrobacter freundii; five strains
[34] = tested on: β-alanine aminopeptidase; test: as above; format: cell-based; details: Serratia plymuthica; five strains
[35] = tested on: β-alanine aminopeptidase; test: as above; format: cell-based; details: Achromobacter xylosoxidans, spp. xylosoxidans; five strains

NCCC(=O)c1c(N)cc(Cl)c(O)c1Cl
1: Number of negative results [3] | Number of negative results [4] | Number of negative results [5] | Number of negative results [7] | Number of negative results [10] | Number of negative results [11]
13: Number positive results [2]
0: Number positive results [1] | Number of negative results [2] | Number positive results [3] | Number positive results [4] | Number positive results [5] | Number positive results [6] | Number positive results [7] | Number positive results [8] | Number positive results [9] | Number positive results [10] | Number positive results [11] | Number positive results [12] | Number positive results [13] | Number positive results [14] | Number positive results [15]
2: Number of negative results [1] | Number of negative results [6] | Number of negative results [8] | Number of negative results [9] | Number of negative results [12] | Number of negative results [13] | Number of negative results [14] | Number of negative results [15]

β-alanyl-β-naphthylamide
positive: β-alanine aminopeptidase activity, result [18]
negative: β-alanine aminopeptidase activity, result [16] | β-alanine aminopeptidase activity, result [17] | β-alanine aminopeptidase activity, result [19] | β-alanine aminopeptidase activity, result [20] | β-alanine aminopeptidase activity, result [21] | β-alanine aminopeptidase activity, result [22] | β-alanine aminopeptidase activity, result [23] | β-alanine aminopeptidase activity, result [24] | β-alanine aminopeptidase activity, result [25] | β-alanine aminopeptidase activity, result [26] | β-alanine aminopeptidase activity, result [27] | β-alanine aminopeptidase activity, result [28] | β-alanine aminopeptidase activity, result [29] | β-alanine aminopeptidase activity, result [30] | β-alanine aminopeptidase activity, result [31] | β-alanine aminopeptidase activity, result [32] | β-alanine aminopeptidase activity, result [33] | β-alanine aminopeptidase activity, result [34] | β-alanine aminopeptidase activity, result [35]
